Source: publication PMC7618122 (American journal of physiology. Heart and circulatory …, 2025)

Target: T1, Nav1.5 (Homo sapiens, UniProt Q14524, F1760A)
T1 construct: gene SCN5A

For `Cc1cccc(C)c1OCC(C)N` (stereo not shown) [MEXI, mexiletine], the “whole-cell patch clamp of tsA201 cells after 24-h incubation with 100 μM; effect” value was “Nav1.5-F1760A peak INa densities, on the other hand, were significantly enhanced after 24-h incubation with MEXI”.
